We go through two compounds from ChEMBL document CHEMBL4699511, “Cedrol, a Sesquiterpene Alcohol, Enhances the Anticancer Efficacy of Temozolomide in Attenuating Drug Resistance via Regulation of the DNA Damage Response and MGMT Expression” (J Nat Prod, 2020).

Active and inactive are the calls of the source. The calls are words filed in the database; no cut-off is given here.

Data set [1] relates to DBTRG-05MG. Description: Induction of cell cycle arrest in human DBTRG-05MG cells assessed as accumulation at G0/G1 phase at 206 uM after 48 hrs by propidium iodide staining based flow cytometric analysis (reference value: 47.16 +/- 1.55%). The format is functional.
Data set [2] has as its system RG2. In words: Induction of apoptosis in rat RG2 cells assessed as increase in DNA fragmentation at 206 uM after 48 hrs by TUNEL assay. The format is functional, cell-based.
In data set [3] the test system is DBTRG-05MG. In words: Induction of apoptosis in human DBTRG-05MG cells assessed as increase in chromatin condensation at 206 uM after 48 hrs by TUNEL assay. The format is functional, cell-based.
Data set [4] in a line: Effect on AKT expression in rat RG2 cells at 206 uM after 48 hrs by Western blot analysis (reference value: 1). The format is functional. In general terms: In western blotting, separated proteins are transferred to a membrane and probed.
The test system of data set [5] is RG2. In words: Induction of cell cycle arrest in rat RG2 cells assessed as accumulation at S phase at 206 uM after 6 hrs by propidium iodide staining based flow cytometric analysis (reference value: 20.15 +/- 2.44%). It counts as functional. (In general: A flow cytometer gives signals particle by particle.)
Data set [6] has as its system RG2. Description: Induction of apoptosis in rat RG2 cells assessed as increase in apoptotic body formation at 206 uM after 48 hrs by TUNEL assay. It counts as functional, cell-based.
Data set [7] is described as follows: Effect on p38 expression in rat RG2 cells at 206 uM after 48 hrs by Western blot analysis (reference value: 1). It counts as functional.
Data set [8] relates to DBTRG-05MG. Description: Induction of DNA damage in human DBTRG-05MG cells assessed as ATM phosphorylation at ser1981 residues at 206 uM after 48 hrs by Western blot analysis (reference value: 1). It counts as functional.
Data set [9] in a line: Synergistic cytotoxicity against rat CTX TNA2 cells assessed as synergistic effect index at 134.9 uM after 48 hrs in presence of 412.1 uM TMZ by MTT assay. The format is cell-based. To be noted: ctx tna2, 48 h. On the technique in general: Formazan colour is commonly taken as a measure of viable cells.
A short description of data set [10]: Synergistic cytotoxicity against rat CTX TNA2 cells assessed as combination index at 134.9 uM after 48 hrs in presence of 103 uM TMZ by MTT assay. The format is cell-based. To be noted: ctx tna2, 48 h.
Data set [11] relates to RG2. Description: Induction of apoptosis in rat RG2 cells assessed as cleaved PARP expression at 112.4 uM after 48 hrs by Western blot analysis (reference value: 1). The format is functional.
In data set [12] the test system is RG2. In words: Synergistic cytotoxicity against rat RG2 cells assessed as synergistic effect index at 112.4 uM after 48 hrs in presence of 206 uM TMZ by MTT assay. It counts as functional.
The test system of data set [13] is DBTRG-05MG. In words: Induction of cell cycle arrest in human DBTRG-05MG cells assessed as accumulation at S phase at 112.4 uM after 24 hrs by propidium iodide staining based flow cytometric analysis (reference value: 22.76 +/- 1.56%). It counts as functional.
The subject of data set [14] is DBTRG-05MG. In words: Potentiation of TMZ-induced antitumor activity against human DBTRG-05MG cells xenografted in BALB/c nude mouse assessed as reduction in MGMT expression at 75 mg/kg, sc co-treated with TMZ for 18 days by fluorescent immunocytochemistry method. It counts as functional, organism-based. Conditions: time 18.0 day.
For data set [15], the system named is RG2. Description: Induction of DNA damage in rat RG2 cells assessed as ATR phosphorylation at ser428 residues at 112.4 uM after 48 hrs in presence of TMZ by Western blot analysis (reference value: 1). It counts as functional.
In data set [16] the test system is RG2. In words: Induction of cell cycle arrest in rat RG2 cells assessed as accumulation at S phase at 112.4 uM after 12 hrs in presence of TMZ by propidium iodide staining based flow cytometric analysis (reference value: 20.15 +/- 2.44%). The format is functional.
The test system of data set [17] is DBTRG-05MG. Description: Induction of apoptosis in human DBTRG-05MG cells assessed as phosphorylated caspace-3 expression at 112.4 uM after 48 hrs by Western blot analysis (reference value: 1). The format is functional.
Data set [18] deals with DBTRG-05MG. Description: Induction of apoptosis in human DBTRG-05MG cells assessed as cleaved PARP expression at 112.4 uM after 48 hrs by Western blot analysis (reference value: 1). The format is functional.
The test system of data set [19] is RG2. Description: Induction of cell cycle arrest in rat RG2 cells assessed as accumulation at G0/G1 phase at 112.4 uM after 6 hrs in presence of TMZ by propidium iodide staining based flow cytometric analysis (reference value: 57.81 +/- 1.9%). The format is functional.
Data set [20] has as its system RG2. Description: Induction of apoptosis in rat RG2 cells assessed as increase in DNA fragmentation at 112.4 uM after 48 hrs by TUNEL assay. The format is functional, cell-based.
In data set [21] the test system is RG2. Description: Synergistic cytotoxicity against rat RG2 cells assessed as synergistic effect index at 89.9 uM after 48 hrs in presence of 103 uM TMZ by MTT assay. The format is functional.
The test system of data set [22] is DBTRG-05MG. Description: Induction of DNA damage in human DBTRG-05MG cells assessed as H2A.X phosphorylation at ser139 residues at 112.4 uM after 48 hrs by Western blot analysis (reference value: 1). The format is functional.
The test system of data set [23] is RG2. In words: Inhibition of p38 phosphorylation at Tyr182 residues in rat RG2 cells at 112.4uM after 48 hrs in presence of TMZ by Western blot analysis (reference value: 1). The format is cell-based.
A short description of data set [24]: Synergistic cytotoxicity against rat CTX TNA2 cells assessed as combination index at 134.9 uM after 48 hrs in presence of 412.1 uM TMZ by MTT assay. The format is cell-based. To be noted: ctx tna2, 48 h.
Data set [25] relates to RG2. In words: Inhibition of JNK phosphorylation at Thr183/Tyr185 residues in rat RG2 cells at 112.4uM after 48 hrs in presence of TMZ by Western blot analysis (reference value: 1). The format is cell-based.
The subject of data set [26] is RG2. Description: Inhibition of p38 phosphorylation at Tyr182 residues in rat RG2 cells at 112.4uM after 48 hrs by Western blot analysis (reference value: 1). The format is cell-based.
Data set [27] relates to RG2. Description: Induction of apoptosis in rat RG2 cells assessed as cleaved caspace-9 expression at 112.4 uM after 48 hrs by Western blot analysis (reference value: 1). It counts as functional.
The test system of data set [28] is DBTRG-05MG. In words: Potentiation of TMZ-induced antitumor activity against human DBTRG-05MG cells xenografted in BALB/c nude mouse assessed as reduction in tumor growth at 75 mg/kg, sc co-treated with TMZ for 18 days by PCNA staining-based bright field microscopic analysis. The format is functional, organism-based. To be noted: time 18.0 day.
Data set [29] relates to DBTRG-05MG. Description: Induction of apoptosis in human DBTRG-05MG cells assessed as increase in chromatin condensation at 112.4 uM after 48 hrs by TUNEL assay. The format is functional, cell-based.
The nature of data set [30]: Synergistic cytotoxicity against rat CTX TNA2 cells assessed as synergistic effect index at 112.4 uM after 48 hrs in presence of 103 uM TMZ by MTT assay. It counts as cell-based. To be noted: ctx tna2, 48 h.
Data set [31] can be described thus: Effect on JNK expression in rat RG2 cells at 112.4uM after 48 hrs in presence of TMZ by Western blot analysis (reference value: 1). The format is functional.
Data set [32] has as its target MAP kinase p38 (Homo sapiens) (UniProt O15264+Q15759+Q16539+P53778). In words: Inhibition of p38 phosphorylation at Tyr182 residues in human DBTRG-05MG cells at 112.4uM after 48 hrs in presence of TMZ by Western blot analysis (reference value: 1). The format is cell-based.
Data set [33] has as its system RG2. In words: Induction of cell cycle arrest in rat RG2 cells assessed as CDK2 expression at 112.4uM after 48 hrs in presence of TMZ by Western blot analysis (reference value: 1). The format is functional.
Data set [34] deals with DBTRG-05MG. In words: Induction of apoptosis in human DBTRG-05MG cells assessed as Bax expression at 112.4 uM after 48 hrs in presence of TMZ by Western blot analysis (reference value: 1). It counts as functional.

Turning to `Cn1nnc2c(C(N)=O)ncn2c1=O` [TEMOZOLOMIDE], the Activity in the data set on DBTRG-05MG [1] was 22.95%; with RG2 [5] it was 24.46%. For the same compound, the outcome in the data set with RG2 [2], in the data set with DBTRG-05MG [3] and with RG2 [6] was Active. Besides, the “fold change (FC)” value in data set [4] is recorded as 0.6; in data set [7], 0.7; in the data set with DBTRG-05MG [8], 2.8.

As for `C[C@@H]1CC[C@H]2C(C)(C)[C@H]3C[C@@]12CC[C@@]3(C)O` [CEDROL], the Activity_index in [9] is 0.58; with RG2 [12], 0.87; in the data set on RG2 [21], 0.65; in data set [30], 0.26. The CI in data set [10] worked out at 1.23; in [24], 1.13. Also, the “fold change (FC)” value in the data set on RG2 [11] came out at 1.4; in the data set on RG2 [15] it was 1.1; with DBTRG-05MG [17] it was 1.1; in the data set on DBTRG-05MG [18] it was 1; in the data set on DBTRG-05MG [22] it was 0.9; with RG2 [23] it was 1.8. Moreover, the fold change (FC) is 0.6 in the data set with RG2 [25]; 1.3 in the data set on RG2 [26]; 1.3 in the data set on RG2 [27]; 0.5 in data set [31]; 1.2 in data set [32]; 0.4 with RG2 [33]. Further, the “fold change (FC)” value with DBTRG-05MG [34] turned out to be 1.7. In addition, the Activity in the data set with DBTRG-05MG [13] was determined as 16.03%; in the data set on RG2 [16] it was 21.29%; with RG2 [19] it was 61.59%. The result in the data set on DBTRG-05MG [14], in the data set on RG2 [20], in the data set with DBTRG-05MG [28] and in the data set on DBTRG-05MG [29] was Active.
